Test [1] has as its target T1, human KCNQ2 (Homo sapiens, UniProt O43526).
T1 construct: expressed in transfected cells
Description: 86Rb flux in KCNQ2 expressing cells. To be noted: KCNQ2 opening; Max effect determined in % of the effect of 30 mM KCl. It counts as cell-based. How it is done: Chinese hamster ovary cells (CHO-K1) were stably transfected with human KCNQ2 inserted into the pCl-neo vector (Promega). Cells were plated at 2×10^5 cells/ml in 96-well plates in 100 μl media (MEM Alpha media, 10% FBS, 1% P/S, 1% L-Glu, and 1 mg/ml G418). At the time of plating the cells were furthermore loaded with 1 μCi/ml 86Rb over-night. On the subsequent day, the cells were washed with 3×50 μl assay buffer (HBSS+10 mM HEPES, pH 7.4) and incubated in 50 μl buffer with retigabine for 30 minutes at 37° C. Following this preincubation, the cell membrane was depolarized for 30 minutes at 37° C. with 15 mM KCl (final concentration) in assay buffer supplemented with the appropriate amount of compound to maintain drug concentration. The supernatant was removed and placed in pony-vials with 0.5 ml scintillation liquid and counted. The dose-dependent effect of the investigated compounds on the efflux of 86Rb through the hKCNQ2 channels were calculated according to the four parameter logistic equation: Y=Bottom+(Top-Bottom)/(1+10̂((LogEC50-X)*HillSlope)), where X is the logarithm of concentration, Y is the response, and HillSlope is the hill coefficient.
A representative selection of compounds of the invention were tested in the assay in addition to 6 comparative examples wherein 0 has been substituted with a 6-membered ring comprising up to two N atoms. Comparative 1-4 has been disclosed in WO 2009/127678 or WO 2009/127679 and comparative 5-6 are close analogues.

For test [2], the system named is α7 nACh receptors expressed in Xenopus oocytes. The test can be described thus: α7 NNR oocyte assay (electrophysiological recordings). It counts as cell-based, human or rat. To be noted: tested subsequently in the oocyte assay. How it is done: Expression of α7 nACh Receptors in Xenopus oocytes.
Oocytes were surgically removed from mature female Xenepus laevis anaesthetized in 0.4% MS-222 for 10-15 min. The oocytes were then digested at room temperature for 2-3 hours with 0.5 mg/ml collagenase (type IA Sigma-Aldrich) in OR2 buffer (82.5 mM NaCl, 2.0 mM KCl, 1.0 mM MgCl2 and 5.0 mM HEPES, pH 7.6). Oocytes avoid of the follicle layer were selected and incubated for 24 hours in Modified Barth's Saline buffer (88 mM NaCl, 1 mM […], 15 mM HEPES, 2.4 mM NaHCO3, 0.41 mM CaCl2, 0.82 mM MgSO4, 0.3 mM Ca(NO3)2) supplemented with 2 mM sodium pyruvate, 0.1 μg/l penicillin and 0.1 μg/l streptomycin. Stage 1V oocytes were identified and injected with 4.2-48 nl of nuclease free water containing 0.1-1.2 ng of cRNA coding for human α7 nACh receptors or 3.0-32 ng of cRNA coding for rat α7 nACh receptors and incubated at 18° C. for 1-10 days when they were used for electrophysiological recordings.
Electrophysiological Recordings of α7 nACh Receptors Expressed in Oocytes.
Oocytes were used for electrophysiological recordings 1-10 days after injection. Oocytes were placed in a 1 ml bath and perfused with Ringer buffer (115 mM NaCl, 2.5 mM KCl, 10 mM HEPES, 1.8 mM CaCl2, 0.1 mM MgCl2, pH 7.5). Cells were impaled with agar plugged 0.2-1 MΩ electrodes containing 3 M KCl and voltage clamped at −90 mV by a GeneClamp 500B amplifier. The experiments were performed at room temperature. Oocytes were continuously perfused with Ringer buffer and the drugs were applied in the perfusate. ACh (30 μM) applied for 30 sec were used as the standard agonist for activation of the α7 nACh receptors. In the standard screening set-up the new test compound (10 μM or 30 μM) were applied for 1 min of pre-application allowing for evaluation of agonistic activity followed by 30 sec of co-application with ACh (30 μM) allowing for evaluation of PAM activity. […] The drug induced effects on both the peak response and the total charge (AUC) response were calculated thus giving the effect of drug induced PAM activity as fold modulation of the control response. […]

Test [3] concerns the target human α7 receptor (Homo sapiens, UniProt P36544). The test can be described thus: α7 NNR flux assay (FDSS Ca assay). It counts as cell-based. To be noted: positive allosteric modulation; rat GH4C1 cell line stably expressing human α7; acetylcholine 20 μM; % modulation relative to PNU-120596 set to 100%. The gist of the method:
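GH4C1 rat cells stably expressing human α7, loaded with Calcium-4 dye plus 2.5 mM probenecid in HBSS/20 mM HEPES pH 7.4, 3 mM CaCl2. Compounds (0.039–20 μM final) preincubated ~95 s before 20 μM acetylcholine (~EC100); Ex480/Em540 fluorescence on FDSS. Values are % modulation, with 3 μM PNU-120596 set to 100%.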

Consider 1 compound from patent US20120252853A1, “Positive allosteric modulators of nicotinic acetylcholine receptor” (H. Lundbeck A/S, priority 2011, published 2012).

Structures are written as SMILES. pEC50: −log10 of the molar value.

Sequence of human α7 receptor (P36544 23-502): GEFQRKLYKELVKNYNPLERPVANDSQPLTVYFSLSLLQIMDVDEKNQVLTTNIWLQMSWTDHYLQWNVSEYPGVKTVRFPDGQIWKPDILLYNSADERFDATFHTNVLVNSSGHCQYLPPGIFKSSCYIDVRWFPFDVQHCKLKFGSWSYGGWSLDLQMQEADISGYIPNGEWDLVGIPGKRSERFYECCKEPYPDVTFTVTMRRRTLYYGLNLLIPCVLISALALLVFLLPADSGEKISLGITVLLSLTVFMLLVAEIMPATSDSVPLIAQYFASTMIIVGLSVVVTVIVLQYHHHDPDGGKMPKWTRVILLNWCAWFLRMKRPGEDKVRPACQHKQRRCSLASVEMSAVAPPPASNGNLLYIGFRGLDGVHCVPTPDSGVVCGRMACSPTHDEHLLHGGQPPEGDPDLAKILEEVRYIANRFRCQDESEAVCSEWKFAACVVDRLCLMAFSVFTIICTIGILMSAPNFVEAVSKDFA

For `Cc1cc2cc(CNC(=O)c3cc(C(C)C)no3)ccc2[nH]1` [Compound 34, 3-isopropyl-N-[(2-methyl-1H-indol-5-yl)methyl]isoxazole-5-carboxamide], in test [1], the maximal effect (Emax) stood at 1%. Further, the “NNR PAM activity in the oocyte assay compared with the flux assay” value in test [2] was “significantly better NNR PAM activity”. The negative logarithm of the EC50 (pEC50) in test [3] was 6.05.
